From patent US11053204B2, “Pyrimidinyloxy benzene derivatives as herbicides” (FMC Corporation, priority 2015, dated 2021)

Experiments:
Type in all cases: in vivo
[1] = test system: Italian ryegrass (Lolium multiflorum); assay: Test A preemergence, visual injury rating; conditions: for Plant response rating, Ryegrass, Italian: 31 g ai/ha, 0 to 100 scale, 0 no effect, 100 complete control; for Ryegrass, Italian plant response rating: 125 g ai/ha, 0 to 100 scale (0 no effect, 100 complete control)
Method in brief: (§1)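 Visual injury scored 0–100 (100 = complete control) against untreated controls about 10 days after treatment in a greenhouse. Test chemicals, formulated with surfactant in non-phytotoxic solvent, were sprayed on soil preemergence or on 2-10 cm, one- to two-leaf plants postemergence.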

[2] = test system: barnyardgrass (Echinochloa crus-galli); assay: Test A preemergence, visual injury rating; conditions: for Plant response rating, Barnyardgrass: 31 g ai/ha, 0 to 100 scale, 0 no effect, 100 complete control; for Barnyardgrass plant response rating: 125 g ai/ha, 0 to 100 scale (0 no effect, 100 complete control)
Method in brief: as §1

[3] = test system: giant foxtail (Setaria faberii); assay: Test A preemergence, visual injury rating; conditions: for Plant response rating, Foxtail, Giant: 31 g ai/ha, 0 to 100 scale, 0 no effect, 100 complete control; for Foxtail, Giant plant response rating: 125 g ai/ha, 0 to 100 scale (0 no effect, 100 complete control)
Method in brief: as §1

kochia (Kochia scoparia) [4] = assay: Test A preemergence, visual injury rating; conditions: for Plant response rating, Kochia: 31 g ai/ha, 0 to 100 scale, 0 no effect, 100 complete control; for Kochia plant response rating: 125 g ai/ha, 0 to 100 scale (0 no effect, 100 complete control)
Method in brief: as §1

[5] = test system: pigweed (Amaranthus retroflexus); assay: Test A preemergence, visual injury rating; conditions: for Plant response rating, Pigweed: 31 g ai/ha, 0 to 100 scale, 0 no effect, 100 complete control; for Pigweed plant response rating: 125 g ai/ha, 0 to 100 scale (0 no effect, 100 complete control)
Method in brief: as §1

[6] = test system: ragweed (common ragweed, Ambrosia elatior); assay: Test A preemergence, visual injury rating; conditions: for Plant response rating, Ragweed: 31 g ai/ha, 0 to 100 scale, 0 no effect, 100 complete control; for Ragweed plant response rating: 125 g ai/ha, 0 to 100 scale (0 no effect, 100 complete control)
Method in brief: as §1

[7] = test system: Italian ryegrass (Lolium multiflorum); assay: Test A postemergence, visual injury rating; conditions: 0 is no effect, 100 is complete control; for Ryegrass, Italian plant response rating: 31 g ai/ha, 0 to 100 scale, approximately 10 days; for Ryegrass, Italian plant response rating (0 to 100 scale): 125 g ai/ha
Method in brief: as §1

[8] = test system: barnyardgrass (Echinochloa crus-galli); assay: Test A postemergence, visual injury rating; conditions: 0 is no effect, 100 is complete control; for Barnyardgrass plant response rating: 31 g ai/ha, 0 to 100 scale, approximately 10 days; for Barnyardgrass plant response rating (0 to 100 scale): 125 g ai/ha
Method in brief: as §1

[9] = test system: blackgrass (Alopecurus myosuroides); assay: Test A postemergence, visual injury rating; conditions: 0 is no effect, 100 is complete control; for Blackgrass plant response rating: 31 g ai/ha, 0 to 100 scale, approximately 10 days; for Blackgrass plant response rating (0 to 100 scale): 125 g ai/ha
Method in brief: as §1

corn (Zea mays) = assay: Test A postemergence, visual injury rating; conditions: 0 is no effect, 100 is complete control; for Corn plant response rating: 31 g ai/ha, 0 to 100 scale, approximately 10 days; for Corn plant response rating (0 to 100 scale): 125 g ai/ha
Method in brief: as §1

[10] = test system: galium (catchweed bedstraw, Galium aparine); assay: Test A postemergence, visual injury rating; conditions: 0 is no effect, 100 is complete control; for Galium plant response rating: 31 g ai/ha, 0 to 100 scale, approximately 10 days; for Galium plant response rating (0 to 100 scale): 125 g ai/ha
Method in brief: as §1

[11] = test system: giant foxtail (Setaria faberii); assay: Test A postemergence, visual injury rating; conditions: 0 is no effect, 100 is complete control; for Foxtail, Giant plant response rating: 31 g ai/ha, 0 to 100 scale, approximately 10 days; for Foxtail, Giant plant response rating (0 to 100 scale): 125 g ai/ha
Method in brief: as §1

kochia (Kochia scoparia) [12] = assay: Test A postemergence, visual injury rating; conditions: 0 is no effect, 100 is complete control; for Kochia plant response rating: 31 g ai/ha, 0 to 100 scale, approximately 10 days; for Kochia plant response rating (0 to 100 scale): 125 g ai/ha
Method in brief: as §1

[13] = test system: pigweed (Amaranthus retroflexus); assay: Test A postemergence, visual injury rating; conditions: 0 is no effect, 100 is complete control; for Pigweed plant response rating: 31 g ai/ha, 0 to 100 scale, approximately 10 days; for Pigweed plant response rating (0 to 100 scale): 125 g ai/ha
Method in brief: as §1

[14] = test system: ragweed (common ragweed, Ambrosia elatior); assay: Test A postemergence, visual injury rating; conditions: 0 is no effect, 100 is complete control; for Ragweed plant response rating: 31 g ai/ha, 0 to 100 scale, approximately 10 days; for Ragweed plant response rating (0 to 100 scale): 125 g ai/ha
Method in brief: as §1

[15] = test system: wheat (Triticum aestivum); assay: Test A postemergence, visual injury rating; conditions: 0 is no effect, 100 is complete control; for Wheat plant response rating: 31 g ai/ha, 0 to 100 scale, approximately 10 days; for Wheat plant response rating (0 to 100 scale): 125 g ai/ha
Method in brief: as §1

[16] = test system: barnyardgrass (Echinochloa crus-galli); assay: Test B flooded paddy test, plant response rating; conditions: 250 g ai/ha; Flood; scale of 0 to 100 where 0 is no effect and 100 is complete control; 13 to 15 days
Method in brief: (§2)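 Greenhouse pots flooded to 3 cm above soil at time of treatment received compound via the water, which stayed at that level.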

[17] = test system: ducksalad (Heteranthera limosa); assay: Test B flooded paddy test, plant response rating; conditions: 250 g ai/ha; Flood; scale of 0 to 100 where 0 is no effect and 100 is complete control; 13 to 15 days
Method in brief: as §2

rice (Oryza sativa) = assay: Test B flooded paddy test, plant response rating; conditions: 250 g ai/ha; Flood; scale of 0 to 100 where 0 is no effect and 100 is complete control; 13 to 15 days
Method in brief: as §2

[18] = test system: sedge, umbrella (small-flower umbrella sedge, Cyperus difformis); assay: Test B flooded paddy test, plant response rating; conditions: 250 g ai/ha; Flood; scale of 0 to 100 where 0 is no effect and 100 is complete control; 13 to 15 days
Method in brief: as §2

Row | SMILES | Plant response rating, Ryegrass, Italian [1] | Ryegrass, Italian plant response rating [1] | Plant response rating, Barnyardgrass [2] | Barnyardgrass plant response rating [2] | Plant response rating, Foxtail, Giant [3] | Foxtail, Giant plant response rating [3] | Plant response rating, Kochia (kochia (Kochia scoparia) [4]) | Kochia plant response rating (kochia (Kochia scoparia) [4]) | Plant response rating, Pigweed [5] | Pigweed plant response rating [5] | Plant response rating, Ragweed [6] | Ragweed plant response rating [6] | Ryegrass, Italian plant response rating [7] | Ryegrass, Italian plant response rating (0 to 100 scale) [7] | Barnyardgrass plant response rating [8] | Barnyardgrass plant response rating (0 to 100 scale) [8] | Blackgrass plant response rating [9] | Blackgrass plant response rating (0 to 100 scale) [9] | Corn plant response rating (corn (Zea mays)) | Corn plant response rating (0 to 100 scale) (corn (Zea mays)) | also measured
1 | CC(C)(C)OC(=O)c1c(F)cccc1Oc1ncc(Cl)cn1 [Compound 43] | 0 | 0 | 0 | 40 | 0 | 60 | 100 | 100 | 30 | 90 | 0 | 0 | 0 | 0 | 0 | 10 | 0 | 0 | 0 | 0 | Galium plant response rating [10]: 20; Galium plant response rating (0 to 100 scale) [10]: 40; Foxtail, Giant plant response rating [11]: 0; Foxtail, Giant plant response rating (0 to 100 scale) [11]: 0; Kochia plant response rating (kochia (Kochia scoparia) [12]): 0; Kochia plant response rating (0 to 100 scale) (kochia (Kochia scoparia) [12]): 10; Pigweed plant response rating [13]: 10; Pigweed plant response rating (0 to 100 scale) [13]: 40; Ragweed plant response rating [14]: 0; Ragweed plant response rating (0 to 100 scale) [14]: 0; Wheat plant response rating [15]: 0; Wheat plant response rating (0 to 100 scale) [15]: 0; Plant response rating, Barnyardgrass [16]: 0; Plant response rating, Ducksalad [17]: 0; Plant response rating, Rice (rice (Oryza sativa)): 0; Plant response rating, Sedge, Umbrella [18]: 0
2 | O=C(OC1CCCC1)c1c(Br)cccc1Oc1ncc(Cl)cn1 [Compound 44] | 0 | 0 | 0 | 0 | 0 | 40 | 0 | 0 | 0 | 0 | 0 | 0 | 0 | 0 | 0 | 0 | 0 | 0 | 0 | 0 | Galium plant response rating [10]: 0; Galium plant response rating (0 to 100 scale) [10]: 0; Foxtail, Giant plant response rating [11]: 0; Foxtail, Giant plant response rating (0 to 100 scale) [11]: 0; Kochia plant response rating (kochia (Kochia scoparia) [12]): 0; Kochia plant response rating (0 to 100 scale) (kochia (Kochia scoparia) [12]): 0; Pigweed plant response rating [13]: 0; Pigweed plant response rating (0 to 100 scale) [13]: 0; Ragweed plant response rating [14]: 0; Ragweed plant response rating (0 to 100 scale) [14]: 0; Wheat plant response rating [15]: 0; Wheat plant response rating (0 to 100 scale) [15]: 0; Plant response rating, Barnyardgrass [16]: 0; Plant response rating, Ducksalad [17]: 0; Plant response rating, Rice (rice (Oryza sativa)): 0; Plant response rating, Sedge, Umbrella [18]: 30
3 | O=C(OCC(Cl)(Cl)Cl)c1c(Br)cccc1Oc1ncc(Cl)cn1 [Compound 45] | 0 | 0 | 0 | 0 | 0 | 10 | 0 | 0 | 0 | 70 | 0 | 0 | 0 | 0 | 20 | 20 | 0 | 0 | 0 | 20 | Galium plant response rating [10]: 50; Galium plant response rating (0 to 100 scale) [10]: 100; Foxtail, Giant plant response rating [11]: 20; Foxtail, Giant plant response rating (0 to 100 scale) [11]: 20; Kochia plant response rating (kochia (Kochia scoparia) [12]): 20; Kochia plant response rating (0 to 100 scale) (kochia (Kochia scoparia) [12]): 50; Pigweed plant response rating [13]: 80; Pigweed plant response rating (0 to 100 scale) [13]: 100; Ragweed plant response rating [14]: 10; Ragweed plant response rating (0 to 100 scale) [14]: 10; Wheat plant response rating [15]: 0; Wheat plant response rating (0 to 100 scale) [15]: 0; Plant response rating, Barnyardgrass [16]: 0; Plant response rating, Ducksalad [17]: 0; Plant response rating, Rice (rice (Oryza sativa)): 0; Plant response rating, Sedge, Umbrella [18]: 0
4 | O=C(OCCCl)c1c(Br)cccc1Oc1ncc(Cl)cn1 [Compound 46] | 0 | 0 | 0 | 20 | 40 | 100 | 0 | 70 | 50 | 100 | 0 | 0 | 0 | 0 | 0 | 30 | 0 | 0 | 0 | 10 | Galium plant response rating [10]: 50; Galium plant response rating (0 to 100 scale) [10]: 70; Foxtail, Giant plant response rating [11]: 0; Foxtail, Giant plant response rating (0 to 100 scale) [11]: 40; Kochia plant response rating (kochia (Kochia scoparia) [12]): 30; Kochia plant response rating (0 to 100 scale) (kochia (Kochia scoparia) [12]): 90; Pigweed plant response rating [13]: 60; Pigweed plant response rating (0 to 100 scale) [13]: 100; Ragweed plant response rating [14]: 0; Ragweed plant response rating (0 to 100 scale) [14]: 0; Wheat plant response rating [15]: 0; Wheat plant response rating (0 to 100 scale) [15]: 0; Plant response rating, Barnyardgrass [16]: 0; Plant response rating, Ducksalad [17]: 75; Plant response rating, Rice (rice (Oryza sativa)): 10; Plant response rating, Sedge, Umbrella [18]: 80
